ChEMBL document CHEMBL6078684, “Discovery of a Novel Non-invasive AR PROTAC Degrader for the Topical Treatment of Androgenetic Alopecia” (J Med Chem, 2024)
Calls of active or inactive are those of the source. The calls are words filed in the database; no cut-off is given here.

Key:
[1] = biological target: Protein cereblon/Androgen receptor (Homo sapiens, UniProt P10275+Q96SW2); test: PROTAC activity at CRBN/AR in human dermal papilla cell assessed as induction of AR degradation measured after 24 to 72 hrs by Western blot analysis; type: cell-based
[2] = Drug uptake in male Sprague-Dawley rat Dorsal skin assessed as retention rat at 1 mg/ml, TOP measured after 30 mins by LC-MS/MS analysis; type: ADME, tissue-based, Zone of skin; details: in vivo, topical_or_ocular, 0.5 h
Mus musculus [3] = test: Hair regeneration efficacy in testosterone induced male C57BL/6 mouse androgenetic alopecia model assessed as entry of hair follicles to anagen phase by measuring high density of enlarged hair bulbs in subcutaneous tissue at 5 %, TOP administered once daily for 14 days with co-administration of 0.2% testosterone for 28 days by H and E staining based analysis; type: functional, organism-based; details: time 14.0 day
[4] = tested on: Human dermal papilla cell; test: Downregulation of AR protein expression in human dermal papilla cells at 1 uM preincubated with testosterone for 24 hrs followed by compound addition and measured after 48 hrs by Western blot analysis; type: functional, cell-based
Mus musculus [5] = test: Hair regeneration efficacy in testosterone induced male C57BL/6 mouse androgenetic alopecia model at 5 %, TOP administered once daily for 14 days and measured after 21 days with co-administration of 0.2% testosterone for 28 days by photographic analysis; type: functional, organism-based; details: time 21.0 day
[6] = tested on: Human dermal papilla cell; test: Upregulation of beta-catenin level in human dermal papilla cells at 1 uM preincubated with testosterone for 24 hrs followed by compound addition and measured after 48 hrs by Western blot analysis; type: functional, cell-based
Mus musculus [7] = test: Hair regeneration efficacy in testosterone induced male C57BL/6 mouse androgenetic alopecia model assessed as generation of thick hair with intact scales at 5 %, TOP administered once daily for 14 days with co-administration of 0.2% testosterone and measured after 28 days by SEM analysis; type: functional, organism-based; details: time 28.0 day
Mus musculus [8] = test: Hair regeneration efficacy in testosterone induced male C57BL/6 mouse androgenetic alopecia model assessed as well formed stratum corneum in hair at 5 %, TOP administered once daily for 14 days with co-administration of 0.2% testosterone and measured after 28 days by SEM analysis; type: functional, organism-based; details: time 28.0 day
Mus musculus [9] = test: Hair regeneration efficacy in testosterone induced male C57BL/6 mouse androgenetic alopecia model assessed as increase in Ki67 expression in skin at 5 % TOP administered once daily for 14 days with co-administration of 0.2% testosterone for 28 days by DAPI staining based immunofluorescence analysis; type: functional, organism-based; details: time 14.0 day
Mus musculus [10] = test: Hair regeneration efficacy in testosterone induced male C57BL/6 mouse androgenetic alopecia model earlier pigmentation at 5 %, TOP administered once daily for 14 days and measured after 21 days with co-administration of 0.2% testosterone for 28 days by photographic analysis; type: functional, organism-based; details: time 14.0 day
Mus musculus [11] = test: In vivo induction of AR degradation in testosterone induced male C57BL/6 mouse androgenetic alopecia model assessed as decrease in AR protein level in skin at […] TOP administered once daily for 14 days with co-administration of 0.2% testosterone for 28 days by Western blot analysis; type: functional, organism-based; details: time 14.0 day
[12] = Inhibition of TGF-beta1 release in human dermal papilla cells assessed as TGF-beta1 concentration at 1 uM preincubated with testosterone for 24 hrs followed by compound addition and measured after 48 hrs by ELISA; type: functional, Human dermal papilla cell
[13] = tested on: Human dermal papilla cell; test: Downregulation of TGF-beta1 expression level in human dermal papilla cells at 1 uM preincubated with testosterone for 24 hrs followed by compound addition and measured after 48 hrs by Western blot analysis; type: functional, cell-based
Mus musculus [14] = test: Hair regeneration efficacy in testosterone induced male C57BL/6 mouse androgenetic alopecia model assessed as increase in hair cycle score at 5 %, TOP administered once daily for 14 days with co-administration of 0.2% testosterone for 28 days; type: functional, organism-based; details: time 14.0 day

Sequence of Protein cereblon/Androgen receptor (P10275 whole entry): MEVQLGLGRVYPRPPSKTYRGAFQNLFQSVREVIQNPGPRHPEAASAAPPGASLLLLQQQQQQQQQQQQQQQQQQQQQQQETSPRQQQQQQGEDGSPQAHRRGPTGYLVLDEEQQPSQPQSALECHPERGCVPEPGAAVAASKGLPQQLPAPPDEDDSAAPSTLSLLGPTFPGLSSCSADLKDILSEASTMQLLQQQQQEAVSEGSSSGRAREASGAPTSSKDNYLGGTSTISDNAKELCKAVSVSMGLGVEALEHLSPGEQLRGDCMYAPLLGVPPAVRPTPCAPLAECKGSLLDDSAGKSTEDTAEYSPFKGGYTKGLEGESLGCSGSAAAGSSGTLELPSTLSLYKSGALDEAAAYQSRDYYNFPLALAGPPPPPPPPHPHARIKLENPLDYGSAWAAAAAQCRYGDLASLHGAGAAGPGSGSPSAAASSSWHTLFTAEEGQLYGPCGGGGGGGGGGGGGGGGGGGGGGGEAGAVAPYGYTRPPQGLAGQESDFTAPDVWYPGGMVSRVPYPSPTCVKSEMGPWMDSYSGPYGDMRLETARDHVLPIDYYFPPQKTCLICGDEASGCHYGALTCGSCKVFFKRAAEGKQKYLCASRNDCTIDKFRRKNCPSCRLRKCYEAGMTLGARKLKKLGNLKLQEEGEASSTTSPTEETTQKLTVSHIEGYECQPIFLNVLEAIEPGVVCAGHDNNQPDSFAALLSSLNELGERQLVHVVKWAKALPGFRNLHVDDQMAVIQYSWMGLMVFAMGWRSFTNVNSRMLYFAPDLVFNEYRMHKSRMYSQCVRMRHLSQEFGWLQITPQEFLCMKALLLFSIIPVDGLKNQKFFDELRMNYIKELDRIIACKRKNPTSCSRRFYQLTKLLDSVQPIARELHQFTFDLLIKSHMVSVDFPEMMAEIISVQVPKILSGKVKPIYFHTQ
Sequence of Protein cereblon/Androgen receptor (Q96SW2 whole entry): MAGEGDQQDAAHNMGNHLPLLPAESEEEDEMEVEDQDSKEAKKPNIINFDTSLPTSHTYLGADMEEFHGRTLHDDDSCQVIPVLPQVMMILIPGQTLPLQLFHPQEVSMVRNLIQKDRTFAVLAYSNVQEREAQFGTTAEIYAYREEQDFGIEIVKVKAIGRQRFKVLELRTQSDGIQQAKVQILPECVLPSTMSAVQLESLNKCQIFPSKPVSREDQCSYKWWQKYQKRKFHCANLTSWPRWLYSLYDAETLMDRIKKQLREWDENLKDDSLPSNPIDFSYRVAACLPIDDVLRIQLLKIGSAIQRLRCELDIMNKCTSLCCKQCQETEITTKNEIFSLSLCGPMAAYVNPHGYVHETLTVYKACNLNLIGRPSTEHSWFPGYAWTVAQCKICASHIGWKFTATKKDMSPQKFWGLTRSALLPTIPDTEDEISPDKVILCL

N#Cc1ccc(O[C@H]2CC[C@H](NC(=O)c3ccc(N4CCN(CC5CCN(c6ccc(C(=O)NC7CCC(=O)NC7=O)cc6)C5)CC4)cc3)CC2)cc1Cl (stereo not given in full)
DC50 [1]: > 1 µM
Drug uptake [2]: 1.86%

O=C1CCC(NC(=O)c2ccc(N3CCN(CCCCc4ccc(F)cc4)CC3)cc2)C(=O)N1 (stereo not given)
Drug uptake [2]: 6.93%

O=C1CCC(N2Cc3c(OCC#CCN4CCN(CC#Cc5ccc(C(F)(F)F)cc5)CC4)cccc3C2=O)C(=O)N1 (stereo not given)
Drug uptake [2]: 1.91%

O=C1CCC(N2C(=O)c3cccc(NC4CCN(CC5CCN(c6ccc(C(F)(F)F)cc6)CC5)CC4)c3C2=O)C(=O)N1 (stereo not given)
Drug uptake [2]: 4.34%

N#Cc1ccc(O[C@H]2CC[C@H](NC(=O)c3ccc(C4CCN(CC5CCCN(c6ccc7c(c6)C(=O)N(C6CCC(=O)NC6=O)C7=O)C5)CC4)cc3)CC2)cc1Cl (stereo not given in full)
DC50 [1]: > 1 µM
Drug uptake [2]: 0.58%

N#Cc1ccc(O[C@H]2CC[C@H](NC(=O)c3ccc(N4CCN(CC5CCN(c6ccc7c(c6)C(=O)N(C6CCC(=O)NC6=O)C7=O)C5)CC4)cc3)CC2)cc1Cl (stereo not given in full)
DC50 [1]: > 1 µM
Drug uptake [2]: 0.74%

O=C1CCC(N2C(=O)c3ccc(N4CCCC(CN5CCC(c6ccc(C(F)(F)F)cc6)CC5)C4)cc3C2=O)C(=O)N1 (stereo not given)
Drug uptake [2]: 5.75%

O=C1CCC(N2C(=O)c3ccc(N4CCC(CN5CCC(c6ccc(C(F)(F)F)cc6)CC5)C4)cc3C2=O)C(=O)N1 (stereo not given)
Drug uptake [2]: 1.94%

N#Cc1ccc(O[C@H]2CC[C@H](NC(=O)c3ccc(CCCCN4CCN(c5ccc(C(=O)NC6CCC(=O)NC6=O)cc5)CC4)cc3)CC2)cc1Cl (stereo not given in full)
DC50 [1]: > 1 µM
Drug uptake [2]: 1.49%

O=C1CCC(N2Cc3cc(C#CCN4CCN(c5ccc(C(F)(F)F)cc5)CC4)ccc3C2=O)C(=O)N1 (stereo not given)
Drug uptake [2]: 2.48%

O=C1CCC(N2C(=O)c3cc(F)c(N4CC(CN5CCC(c6ccc(C(F)(F)F)cc6)CC5)C4)cc3C2=O)C(=O)N1 (stereo not given)
Drug uptake [2]: 2.22%

O=C1CCC(N2C(=O)c3ccc(N4CCN(CC5CCN(c6ccc(C(F)(F)F)cc6)CC5)CC4)cc3C2=O)C(=O)N1 (stereo not given)
Drug uptake [2]: 8.73%

N#Cc1ccc(O[C@H]2CC[C@H](NC(=O)c3ccc(N4CCN(C5CN(c6ccc7c(c6)C(=O)N(C6CCC(=O)NC6=O)C7=O)C5)CC4)cc3)CC2)cc1Cl (stereo not given in full)
DC50 [1]: > 1 µM
Drug uptake [2]: 1.41%

O=C1CCC(N2C(=O)c3ccc(N4CCC(CN5CCN(c6ccc(C(F)(F)F)cc6)CC5)C4)cc3C2=O)C(=O)N1 (stereo not given)
Drug uptake [2]: 0.68%

N#Cc1ccc(O[C@H]2CC[C@H](NC(=O)c3ccc(N4CCN(CC5CCN(c6ccc7c(c6)C(=O)N(C6CCC(=O)NC6=O)C7=O)CC5)CC4)cc3)CC2)cc1Cl (stereo not given in full)
Drug uptake [2]: 0.69%

N#Cc1ccc(O[C@H]2CC[C@H](NC(=O)c3ccc(C4CCN(CC5CN(c6ccc7c(c6)C(=O)N(C6CCC(=O)NC6=O)C7=O)C5)CC4)cc3)CC2)cc1Cl (stereo not given in full)
DC50 [1]: > 1 µM
Drug uptake [2]: 0.6%

O=C1CCC(N2C(=O)c3ccc(N4CC(N5CCN(c6ccc(C(F)(F)F)cc6)CC5)C4)cc3C2=O)C(=O)N1 (stereo not given)
Drug uptake [2]: 5.84%

O=C1CCC(NC(=O)c2ccc(N3CCN(CCC4CCN(c5ccc(F)cc5)CC4)CC3)cc2)C(=O)N1 (stereo not given)
Drug uptake [2]: 3.92%

N#Cc1ccc(O[C@H]2CC[C@H](NC(=O)c3ccc(N4CCC(CN5CCN(c6ccc(C(=O)NC7CCC(=O)NC7=O)cc6)CC5)CC4)cc3)CC2)cc1Cl (stereo not given in full)
DC50 [1]: > 1 µM
Drug uptake [2]: 0.81%

Nc1cc(N2CCCCC2)nc(N)[n+]1[O-] [MINOXIDIL]
Activity (Mus musculus [3]): Active
Activity [4]: inactive
Activity (Mus musculus [5]): Active
Activity [6]: Active
Activity (Mus musculus [7]): Active
Activity (Mus musculus [8]): Active
Activity (Mus musculus [9]): Active
Activity (Mus musculus [10]): Active
Activity (Mus musculus [11]): inactive
Activity [12]: 952.22 pg/mL
Activity [13]: Active
Activity (Mus musculus [14]): Active

N#Cc1ccc(O[C@H]2CC[C@H](NC(=O)c3ccc(N4CCC(CN5CCN(c6ccc7c(c6)C(=O)N(C6CCC(=O)NC6=O)C7=O)CC5)CC4)cc3)CC2)cc1Cl (stereo not given in full)
DC50 [1]: 0.207 µM
Drug uptake [2]: 0.62%

O=C1CCC(NC(=O)c2ccc(N3CCN(CC4CCN(c5ccc(F)cc5)CC4)CC3)cc2)C(=O)N1 (stereo not given)
Drug uptake [2]: 4.99%

O=C1CCC(N2Cc3cc(OCC#CCN4CCN(CC#Cc5ccc(C(F)(F)F)cc5)CC4)ccc3C2=O)C(=O)N1 (stereo not given)
Drug uptake [2]: 5.41%

N#Cc1ccc(O[C@H]2CC[C@H](NC(=O)c3ccc(N4CCC(CCN5CCN(c6ccc(C(=O)NC7CCC(=O)NC7=O)cc6)CC5)CC4)cc3)CC2)cc1Cl (stereo not given in full)
DC50 [1]: > 1 µM
Drug uptake [2]: 1%

O=C1CCC(N2C(=O)c3ccc(N4CC(CN5CCC(c6ccc(C(F)(F)F)cc6)CC5)C4)cc3C2=O)C(=O)N1 (stereo not given)
Drug uptake [2]: 8.45%

O=C1CCC(NC(=O)c2ccc(N3CCN(C4CCN(c5ccc(F)cc5)CC4)CC3)cc2)C(=O)N1 (stereo not given)
Drug uptake [2]: 9.12%

N#Cc1ccc(O[C@H]2CC[C@H](NC(=O)c3ccc(C4CCN(CC5CN(c6ccc(C(=O)NC7CCC(=O)NC7=O)cc6)C5)CC4)cc3)CC2)cc1Cl (stereo not given in full)
DC50 [1]: 0.0709 µM
Drug uptake [2]: 1.23%

N#Cc1ccc(O[C@H]2CC[C@H](NC(=O)c3ccc(N4CCC(N5CCN(c6ccc(C(=O)NC7CCC(=O)NC7=O)cc6)CC5)CC4)cc3)CC2)cc1Cl (stereo not given in full)
DC50 [1]: 0.104 µM
Drug uptake [2]: 1.31%

CNC(=O)c1ccc(N2C(=S)N(c3ccc(C#N)c(C(F)(F)F)c3)C(=O)C2(C)C)cc1F [ENZALUTAMIDE]
Activity [4]: inactive
Activity [6]: Active
Activity [12]: 1195 pg/mL
Activity [13]: Active

O=C1CCC(N2C(=O)c3cccc(N4CCC(CN5CCN(c6ccc(C(F)(F)F)cc6)CC5)C4)c3C2=O)C(=O)N1 (stereo not given)
Drug uptake [2]: 0.96%
